Measured values: patent publication US5187082A, “Process for producing A83850 antibiotics” (Eli Lilly and Company, priority 1990, dated 1993)
Values after ≈ are worked out from the molar mass of the structure shown. Positions of bridges follow the written chain, without caps; N, C: chain ends. Non-standard residues stand in square brackets, D forms with d. Residues, ends and D or L forms follow the SMILES beside them. *: point of attachment. Ileψ(thiazoline)Cys = CC[C@H](C)[C@H](N)C1=N[C@H](C(=O)*)CS1; dOrn = NCCC[C@@H](N)C(=O)O

Columns and labels:
Bacteriodes fragilis = assay: Activity against anaerobic bacteria, agar-dilution MIC; type: cell-based; details: Bacteriodes fragilis; anaerobe, agar dilution, read after 24-hour incubation
[1] = tested on: Bacteriodes thetaiotaomicron; assay: as above; details: Bacteriodes thetaiotaomicron; anaerobe, agar dilution, read after 24-hour incubation
[2] = tested on: Fusobacterium necrophorum; details: anaerobe, agar dilution, read after 24-hour incubation
Peptococcus prevoti = assay: Activity against anaerobic bacteria, agar-dilution MIC; details: Peptococcus prevoti; anaerobe, agar dilution, read after 24-hour incubation
Bacteroides corrodens = assay: as above; type: cell-based; details: Bacteroides corrodens; anaerobe, agar dilution, read after 24-hour incubation
Clostridium perfringens = details: anaerobe, agar dilution, read after 24-hour incubation
[3] = tested on: Streptococcus pneumoniae Park 1; assay: microbe, parasite or virus in culture; type: cell-based; details: Streptococcus pneumoniae Park 1; agar dilution
Description: (§1) The MIC's in Table VII were determined by standard agar-dilution assays.

Fusobacterium symbiosum = details: anaerobe, agar dilution, read after 24-hour incubation
[4] = tested on: Peptococcus asaccharolyticus; assay: Activity against anaerobic bacteria, agar-dilution MIC; details: Peptococcus asaccharolyticus; anaerobe, agar dilution, read after 24-hour incubation
[5] = tested on: Bacteriodes melaninogenicus; assay: as above; type: cell-based; details: Bacteriodes melaninogenicus; anaerobe, agar dilution, read after 24-hour incubation
Clostridium septicum = details: anaerobe, agar dilution, read after 24-hour incubation
[6] = tested on: Staphylococcus epidermidis 222; type: cell-based; details: Staphylococcus epidermidis 222; agar dilution
Description: as §1

[7] = tested on: Staphylococcus epidermidis 270; type: cell-based; details: Staphylococcus epidermidis 270; agar dilution
Description: as §1

[8] = tested on: Staphylococcus aureus X1.1; type: cell-based; details: Staphylococcus aureus X1.1; agar dilution
Description: as §1

[9] = tested on: Streptococcus pyogenes C203; type: cell-based; details: Streptococcus pyogenes C203; agar dilution
Description: as §1

[10] = tested on: Staphylococcus aureus X400; type: cell-based; details: Staphylococcus aureus X400; agar dilution
Description: as §1

Enterococcus faecium X66 = type: cell-based; details: Enterococcus faecium X66; agar dilution
Description: as §1

[11] = tested on: Staphylococcus aureus V41; type: cell-based; details: Staphylococcus aureus V41; agar dilution
Description: as §1

[12] = tested on: Enterococcus faecalis 2041; type: cell-based; details: Enterococcus faecalis 2041; agar dilution
Description: as §1

Eubacterium aerofaciens = details: anaerobe, agar dilution, read after 24-hour incubation
Propionibacterium acnes = assay: Activity against anaerobic bacteria, agar-dilution MIC; type: cell-based; details: Propionibacterium acnes; anaerobe, agar dilution, read after 24-hour incubation
Streptococcus pyogenes = assay: In vivo activity against experimentally-induced infection in mice; details: doses administered subcutaneously to mice 1 and 4 hours postinfection
Description: (§2) The A83850 antibiotics have also shown in vivo antimicrobial activity against experimentally-induced infections in laboratory animals. When two doses of test compound were administered to mice experimentally infected with the test organism, the activity observed was measured as an ED50 value [effective dose in mg/kg to protect 50% of the test animals: see Warren Wick, et al., J. Bacteriol. 81, 233-235 (1961)].
(§3) ^a mg/kg × 2; doses administered subcutaneously to mice 1 and 4

Staphylococcus aureus = assay: as above; details: doses administered subcutaneously to mice 1 and 4 hours postinfection
Description: as §2, §3

Streptococcus pneumoniae = assay: as above; details: doses administered subcutaneously to mice 1 and 4 hours postinfection
Description: as §2, §3

[13] = tested on: Peptostreptococcus anaerobius; assay: Activity against anaerobic bacteria, agar-dilution MIC; type: cell-based; details: anaerobe, agar dilution, read after 24-hour incubation
[14] = tested on: Peptostreptococcus intermedius; assay: as above; type: cell-based; details: Peptostreptococcus intermedius; anaerobe, agar dilution, read after 24-hour incubation
Clostridium difficile = assay: as above; details: Clostridium difficile; anaerobe, agar dilution, read after 24-hour incubation
Bacteriodes vulgatis = assay: as above; details: Bacteriodes vulgatis; anaerobe, agar dilution, read after 24-hour incubation
[15] = tested on: Culture A83850 (Amycolatopsis albus NRRL 18532); assay: Resistance of culture A83850 to antibiotics, sensitivity discs on seeded ISP No. 2 agar plates; type: cell-based; details: disc content printed per antibiotic
Description: Resistance to antibiotics was measured by padding antibiotic sensitivity discs onto the surface of seeded ISP No. 2 agar plates.

Structure (SMILES) | MIC [3] | MIC [6] | MIC [7] | MIC [8] | MIC [9] | MIC [10] | MIC (Enterococcus faecium X66) | MIC [11] | MIC [12] | ED50 Value (Streptococcus pyogenes) | ED50 Value (Staphylococcus aureus) | ED50 Value (Streptococcus pneumoniae) | Resistance or inhibition of culture A83850 by antibiotic disc [15] | also measured
CC(C)C[C@H](C(=O)N[C@H]1C(=O)N[C@@H](CC(N)=O)C(=O)N[C@H]2C(=O)N[C@H]3C(=O)N[C@H](C(=O)N[C@H](C(=O)O)c4cc(O)cc(O)c4-c4cc3ccc4O)[C@H](O)c3ccc(c(Cl)c3)Oc3cc2cc(c3O[C@@H]2O[C@H](CO)[C@@H](O)[C@H](O)[C@H]2O[C@H]2C[C@](C)(N)C(=O)[C@H](C)O2)Oc2ccc(cc2Cl)[C@H]1O)N(C)C [A83850A] | 1.0 µg/mL (≈ 0.684 µM) | 2.0 µg/mL (≈ 1.37 µM) | 4.0 µg/mL (≈ 2.74 µM) | 1.0 µg/mL (≈ 0.684 µM) | 1.0 µg/mL (≈ 0.684 µM) | 2.0 µg/mL (≈ 1.37 µM) | 2.0 µg/mL (≈ 1.37 µM) | 2.0 µg/mL (≈ 1.37 µM) | 8.0 µg/mL (≈ 5.47 µM) | 3.62 mg/kg × 2 | 2.87 mg/kg × 2 | 2.73 mg/kg × 2 | – | MIC (Bacteriodes fragilis): 16.0 to 32.0 µg/mL; MIC [1]: 64 µg/mL (≈ 43.8 µM); MIC [2]: 1.0 µg/mL (≈ 0.684 µM); MIC (Peptococcus prevoti): 16 µg/mL (≈ 10.9 µM); MIC (Bacteroides corrodens): 32 µg/mL (≈ 21.9 µM); MIC (Clostridium perfringens): 2 µg/mL (≈ 1.37 µM); MIC (Fusobacterium symbiosum): 4 µg/mL (≈ 2.74 µM); MIC [4]: 16 µg/mL (≈ 10.9 µM); MIC [5]: 16 µg/mL (≈ 10.9 µM); MIC (Clostridium septicum): 2 µg/mL (≈ 1.37 µM); MIC (Eubacterium aerofaciens): 2 µg/mL (≈ 1.37 µM); MIC (Propionibacterium acnes): 8.0 µg/mL (≈ 5.47 µM); MIC [13]: 32 µg/mL (≈ 21.9 µM); MIC [14]: 2.0 µg/mL (≈ 1.37 µM); MIC (Clostridium difficile): 4 µg/mL (≈ 2.74 µM); MIC (Bacteriodes vulgatis): 16 µg/mL (≈ 10.9 µM)
CN[C@H](CC(C)C)C(=O)N[C@H]1C(=O)N[C@@H](CC(N)=O)C(=O)N[C@H]2C(=O)N[C@H]3C(=O)N[C@H](C(=O)N[C@H](C(=O)O)c4cc(O)cc(O)c4-c4cc3ccc4O)[C@H](O)c3ccc(c(Cl)c3)Oc3cc2cc(c3O[C@@H]2O[C@H](CO)[C@@H](O)[C@H](O)[C@H]2O[C@H]2C[C@](C)(N)C(=O)[C@H](C)O2)Oc2ccc(cc2Cl)[C@H]1O [A83850B] | 0.125 µg/mL (≈ 0.0864 µM) | 1.0 µg/mL (≈ 0.691 µM) | 1.0 µg/mL (≈ 0.691 µM) | 0.5 µg/mL (≈ 0.345 µM) | 0.5 µg/mL (≈ 0.345 µM) | 1.0 µg/mL (≈ 0.691 µM) | 1.0 µg/mL (≈ 0.691 µM) | 1.0 µg/mL (≈ 0.691 µM) | 4.0 µg/mL (≈ 2.76 µM) | 2.19 mg/kg × 2 | 2.87 mg/kg × 2 | 0.98 mg/kg × 2 | – | MIC (Bacteriodes fragilis): 16.0 to 32.0 µg/mL; MIC [1]: 64 µg/mL (≈ 44.2 µM); MIC [2]: 1.0 µg/mL (≈ 0.691 µM); MIC (Peptococcus prevoti): 2 µg/mL (≈ 1.38 µM); MIC (Bacteroides corrodens): 32 µg/mL (≈ 22.1 µM); MIC (Clostridium perfringens): 2 µg/mL (≈ 1.38 µM); MIC (Fusobacterium symbiosum): 2 µg/mL (≈ 1.38 µM); MIC [4]: 2 µg/mL (≈ 1.38 µM); MIC [5]: 32 µg/mL (≈ 22.1 µM); MIC (Clostridium septicum): 1.0 µg/mL (≈ 0.691 µM); MIC (Eubacterium aerofaciens): 2 µg/mL (≈ 1.38 µM); MIC (Propionibacterium acnes): 8.0 µg/mL (≈ 5.53 µM); MIC [13]: 16 µg/mL (≈ 11.1 µM); MIC [14]: 2.0 µg/mL (≈ 1.38 µM); MIC (Clostridium difficile): 2 µg/mL (≈ 1.38 µM); MIC (Bacteriodes vulgatis): 16 µg/mL (≈ 11.1 µM)
CC(C)C[C@H](C(=O)N[C@H]1C(=O)N[C@@H](CC(N)=O)C(=O)N[C@H]2C(=O)N[C@H]3C(=O)N[C@H](C(=O)N[C@H](C(=O)O)c4cc(O)cc(O)c4-c4cc3ccc4O)[C@H](O)c3ccc(c(Cl)c3)Oc3cc2cc(c3O[C@@H]2O[C@H](CO)[C@@H](O)[C@H](O)[C@H]2O[C@H]2C[C@](C)(N)[C@@H](O)[C@H](C)O2)Oc2ccc(cc2Cl)[C@H]1O)N(C)C [Reduced A83850A] | 0.25 µg/mL (≈ 0.171 µM) | 4.0 µg/mL (≈ 2.73 µM) | 4.0 µg/mL (≈ 2.73 µM) | 2.0 µg/mL (≈ 1.37 µM) | 2.0 µg/mL (≈ 1.37 µM) | 2.0 µg/mL (≈ 1.37 µM) | 2.0 µg/mL (≈ 1.37 µM) | 2.0 µg/mL (≈ 1.37 µM) | 8.0 µg/mL (≈ 5.47 µM) | 2.30 mg/kg × 2 | 7.10 mg/kg × 2 | 3.88 mg/kg × 2 | – | –
CN[C@H](CC(C)C)C(=O)N[C@H]1C(=O)N[C@@H](CC(N)=O)C(=O)N[C@H]2C(=O)N[C@H]3C(=O)N[C@H](C(=O)N[C@H](C(=O)O)c4cc(O)cc(O)c4-c4cc3ccc4O)[C@H](O)c3ccc(c(Cl)c3)Oc3cc2cc(c3O[C@@H]2O[C@H](CO)[C@@H](O)[C@H](O)[C@H]2O[C@H]2C[C@](C)(N)[C@@H](O)[C@H](C)O2)Oc2ccc(cc2Cl)[C@H]1O [Reduced A83850B] | 0.125 µg/mL (≈ 0.0863 µM) | 2.0 µg/mL (≈ 1.38 µM) | 2.0 µg/mL (≈ 1.38 µM) | 1.0 µg/mL (≈ 0.69 µM) | 0.5 µg/mL (≈ 0.345 µM) | 1.0 µg/mL (≈ 0.69 µM) | 1.0 µg/mL (≈ 0.69 µM) | 1.0 µg/mL (≈ 0.69 µM) | 4.0 µg/mL (≈ 2.76 µM) | 1.36 mg/kg × 2 | 2.12 mg/kg × 2 | 1.99 mg/kg × 2 | – | –
CC[C@H](C)[C@H](N)C1=N[C@H](C(=O)N[C@@H](CC(C)C)C(=O)N[C@H](CCC(=O)O)C(=O)N[C@H](C(=O)N[C@H]2CCCCNC(=O)[C@H](CC(N)=O)NC(=O)[C@@H](CC(=O)O)NC(=O)[C@H](Cc3cnc[nH]3)NC(=O)[C@@H](Cc3ccccc3)NC(=O)[C@H]([C@@H](C)CC)NC(=O)[C@@H](CCCN)NC2=O)[C@@H](C)CC)CS1 [bacitracin] ({Ileψ(thiazoline)Cys}-L[dE]IK[dOrn]I[dF]H[dD]N; lactam 4-C) | – | – | – | – | – | – | – | – | – | – | – | – | resistant | –
CC(=O)OCC1=C(C(=O)O)N2C(=O)[C@@H](NC(=O)Cc3cccs3)[C@H]2SC1 [cephalothin] | – | – | – | – | – | – | – | – | – | – | – | – | inhibited | –
CCC[C@@H]1C[C@@H](C(=O)N[C@@H]([C@H]2O[C@H](SC)[C@H](O)[C@@H](O)[C@H]2O)[C@@H](C)O)N(C)C1 [lincomycin] | – | – | – | – | – | – | – | – | – | – | – | – | inhibited | –
